Test results taken from patent US20140148443A1, “Novel Imidazolines as dual inhibitors of MDM2 and MDMX” (priority 2012, published 2014).

What was measured:
[1] = molecular target: recombinant GST-tagged MDM2 (Homo sapiens, UniProt Q00987); assay: HTRF assay of interaction between p53 peptide and GST-tagged MDM2; settings: inhibition of GST-MDM2 (160 ng/ml) binding to biotinylated p53-peptide
Experimental: The ability of a test compound to inhibit the interaction between p53 and MDM2 protein was measured by an HTRF (homogeneous time-resolved fluorescence) assay in which recombinant GST-tagged MDM2 binds to a peptide that resembles the MDM2-interacting region of p53 Aca-[…]-OH hereinafter p53-peptide). Binding of GST-MDM2 protein and p53-peptide (biotinylated on its N-terminal end) is registered by the FRET (fluorescence resonance energy transfer) between Europium (Eu)-labeled anti-GST antibody and streptavidin-conjugated Allophycocyanin (APC).
The test was performed in black flat-bottom 384-well plates (Costar) in a total volume of 40 uL containing: 90 nM biotinylated peptide, 160 ng/ml GST-MDM2, 20 nM streptavidin-APC (PerkinElmerWallac), 2 nM Eu-labeled anti-GST-antibody (PerkinElmerWallac), 0.02% bovine serum albumin (BSA), 1 mM dithiothreitol (DTT) and 20 mM […] (TBS) buffer as follows: add 10 uL of GST-MDM2 (640 ng/ml working solution) in reaction buffer to each well. Add 10 uL diluted compounds (1:5 dilution in reaction buffer) to each well, mix by shaking. Add 20 uL biotinylated p53 peptide (180 nM working solution) in reaction buffer to each well and mix on shaker. Incubate at 37° C. for 1 h. Add […] streptavidin-APC and Eu-anti-GST antibody mixture (6 nM Eu-anti-GST and 60 nM streptavidin-APC working solution) in TBS buffer with 0.02% BSA, shake at room temperature for 30 minutes and read using a TRF-capable plate reader at 665 and 615 nm (Victor 5, Perkin ElmerWallac). If not specified, the reagents were purchased from Sigma Chemical Co.

GST-tagged MDMX = molecular target: T1, GST-tagged MDMX (Homo sapiens, UniProt O15151); assay: HTRF binding assay of GST-tagged MDMX to p53 peptide
T1 sequence (O15151 1-490): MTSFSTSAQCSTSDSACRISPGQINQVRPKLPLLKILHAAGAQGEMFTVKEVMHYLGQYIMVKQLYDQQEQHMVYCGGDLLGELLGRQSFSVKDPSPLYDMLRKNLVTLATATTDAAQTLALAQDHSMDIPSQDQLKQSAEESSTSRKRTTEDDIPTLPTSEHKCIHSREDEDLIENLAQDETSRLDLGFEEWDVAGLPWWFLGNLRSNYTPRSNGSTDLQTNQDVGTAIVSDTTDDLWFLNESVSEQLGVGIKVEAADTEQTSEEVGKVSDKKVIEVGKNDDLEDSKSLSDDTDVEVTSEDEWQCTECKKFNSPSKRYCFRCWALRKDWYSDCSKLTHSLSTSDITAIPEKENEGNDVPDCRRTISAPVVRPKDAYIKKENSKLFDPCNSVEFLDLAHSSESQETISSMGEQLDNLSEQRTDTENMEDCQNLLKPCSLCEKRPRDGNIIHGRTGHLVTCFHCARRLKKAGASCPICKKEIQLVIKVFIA

recombinant GST-tagged MDM2, sequence (Q00987 whole entry): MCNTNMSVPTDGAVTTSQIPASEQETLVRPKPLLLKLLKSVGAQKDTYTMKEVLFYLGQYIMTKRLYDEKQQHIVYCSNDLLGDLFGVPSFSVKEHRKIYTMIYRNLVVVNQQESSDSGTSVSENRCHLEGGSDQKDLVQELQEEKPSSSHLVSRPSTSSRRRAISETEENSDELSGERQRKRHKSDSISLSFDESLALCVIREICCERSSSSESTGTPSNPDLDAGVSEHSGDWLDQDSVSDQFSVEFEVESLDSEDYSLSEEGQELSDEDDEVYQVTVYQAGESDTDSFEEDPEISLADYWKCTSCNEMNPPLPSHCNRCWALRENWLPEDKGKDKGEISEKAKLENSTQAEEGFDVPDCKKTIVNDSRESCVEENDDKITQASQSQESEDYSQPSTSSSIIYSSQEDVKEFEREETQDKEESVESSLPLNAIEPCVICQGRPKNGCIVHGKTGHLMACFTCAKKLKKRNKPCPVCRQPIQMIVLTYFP

| Structure (SMILES) | IC50 [1] [nM] | IC50 (GST-tagged MDMX) [nM] |
| --- | --- | --- |
| CCOc1cc(Cl)c(S(=O)(=O)NC(C)(C)C)cc1C1=N[C@@](C)(c2ccc(Cl)cc2)[C@@](C)(c2ccc(Cl)cc2)N1C(=O)N1CCN(CC(=O)NCC2CCCO2)CC1 (mixture of isomers) [Example 48, 2-{4-[(4S,5R)-2-(5-tert-Butylsulfamoyl-4-chloro-2-ethoxy-phenyl)-4,5-bis-(4-chloro-phenyl)-4,5-dimethyl-4,5-dihydro-imidazole-1-carbonyl]-piperazin-1-yl}-N-(tetrahydro-furan-2-ylmethyl)-acetamide] | 11.7 | 1330 |
| CCOc1cc(Cl)c(S(C)(=O)=O)cc1C1=N[C@@](C)(c2ccc(Cl)cc2)[C@@](C)(c2ccc(Cl)cc2)N1C(=O)N1CCC(CC(N)=O)CC1 (racemic) [Example 5, 2-{1-[(4S,5R)-2-(4-Chloro-2-ethoxy-5-methanesulfonyl-phenyl)-4,5-bis-(4-chloro-phenyl)-4,5-dimethyl-4,5-dihydro-imidazole-1-carbonyl]-piperidin-4-yl}-acetamide] | 15.3 | 3660 |
| CCOc1cc(Cl)c(S(C)(=O)=O)cc1C1=N[C@@](C)(c2ccc(Cl)cc2)[C@@](C)(c2ccc(Cl)cc2)N1C(=O)N1CCNC(=O)C1 [Example 2, 4-[(4S,5R)-2-(4-Chloro-2-ethoxy-5-methanesulfonyl-phenyl)-4,5-bis-(4-chloro-phenyl)-4,5-dimethyl-4,5-dihydro-imidazole-1-carbonyl]-piperazin-2-one] | 5.7 | 1080 |
| CCOc1cc(Cl)c(S(C)(=O)=O)cc1C1=N[C@@](C)(c2ccc(Cl)cc2)[C@@](C)(c2ccc(Cl)cc2)N1C(=O)N1CCN(C[C@H](O)CO)CC1 [Example 3, [(4S,5R)-2-(4-Chloro-2-ethoxy-5-methanesulfonyl-phenyl)-4,5-bis-(4-chloro-phenyl)-4,5-dimethyl-4,5-dihydro-imidazol-1-yl]-[4-((S)-2,3-dihydroxy-propyl)-piperazin-1-yl]-methanone] | 5.4 | 1140 |
| CCOc1cc(Cl)c(S(C)(=O)=O)cc1C1=N[C@@](C)(c2ccc(Cl)cc2)[C@@](C)(c2ccc(Cl)cc2)N1C(=O)N1CCN(CC[C@H](O)CO)C(=O)C1 [Example 4, 4-[(4S,5R)-2-(4-Chloro-2-ethoxy-5-methanesulfonyl-phenyl)-4,5-bis-(4-chloro-phenyl)-4,5-dimethyl-4,5-dihydro-imidazole-1-carbonyl]-1-((S)-3,4-dihydroxy-butyl)-piperazin-2-one] | 5.4 | 1730 |
| CCOc1cc(Cl)c(S(C)(=O)=O)cc1C1=N[C@@](C)(c2ccc(Cl)cc2)[C@@](C)(c2ccc(Cl)cc2)N1C(=O)N1CCN(CC(N)=O)CC1 [Example 6, 2-{4-[(4S,5R)-2-(4-Chloro-2-ethoxy-5-methanesulfonyl-phenyl)-4,5-bis-(4-chloro-phenyl)-4,5-dimethyl-4,5-dihydro-imidazole-1-carbonyl]-piperazin-1-yl}-acetamide] | 6.6 | 1210 |
| CCOc1cc(Cl)c(S(C)(=O)=O)cc1C1=N[C@@](C)(c2ccc(Cl)cc2)[C@@](C)(c2ccc(Cl)cc2)N1C(=O)N1CCN(S(C)(=O)=O)CC1 [Example 7, [(4S,5R)-2-(4-Chloro-2-ethoxy-5-methanesulfonyl-phenyl)-4,5-bis-(4-chloro-phenyl)-4,5-dimethyl-4,5-dihydro-imidazol-1-yl]-(4-methanesulfonyl-piperazin-1-yl)-methanone] | 6.3 | 2490 |
| CCOc1cc(Cl)c(S(C)(=O)=O)cc1C1=N[C@@](C)(c2ccc(Cl)cc2)[C@@](C)(c2ccc(Cl)cc2)N1C(=O)N1CCC(N)CC1 [Example 8, (4-Amino-piperidin-1-yl)-[(4S,5R)-2-(4-chloro-2-ethoxy-5-methanesulfonyl-phenyl)-4,5-bis-(4-chloro-phenyl)-4,5-dimethyl-4,5-dihydro-imidazol-1-yl]-methanone] | 4.4 | 1070 |
| CCOc1cc(Cl)c(S(C)(=O)=O)cc1C1=N[C@@](C)(c2ccc(Cl)cc2)[C@@](C)(c2ccc(Cl)cc2)N1C(=O)N1CCC(CS(C)(=O)=O)CC1 [Example 9, [(4S,5R)-2-(4-Chloro-2-ethoxy-5-methanesulfonyl-phenyl)-4,5-bis-(4-chloro-phenyl)-4,5-dimethyl-4,5-dihydro-imidazol-1-yl]-(4-methanesulfonylmethyl-piperidin-1-yl)-methanone] | 5.8 | 1700 |
| CCNC(=O)NC1CCN(C(=O)N2C(c3cc(S(C)(=O)=O)c(Cl)cc3OCC)=N[C@@](C)(c3ccc(Cl)cc3)[C@@]2(C)c2ccc(Cl)cc2)CC1 [Example 10, 1-{1-[(4S,5R)-2-(4-Chloro-2-ethoxy-5-methanesulfonyl-phenyl)-4,5-bis-(4-chloro-phenyl)-4,5-dimethyl-4,5-dihydro-imidazole-1-carbonyl]-piperidin-4-yl}-3-ethyl-urea] | 4.2 | 974 |
| CCOc1cc(Cl)c(S(C)(=O)=O)cc1C1=N[C@@](C)(c2ccc(Cl)cc2)[C@@](C)(c2ccc(Cl)cc2)N1C(=O)N1CCC(NC(=O)NC(C)C)CC1 [Example 11, 1-{1-[(4S,5R)-2-(4-Chloro-2-ethoxy-5-methanesulfonyl-phenyl)-4,5-bis-(4-chloro-phenyl)-4,5-dimethyl-4,5-dihydro-imidazole-1-carbonyl]-piperidin-4-yl}-3-isopropyl-urea] | 4.5 | 1270 |
| CCOc1cc(Cl)c(S(=O)(=O)CC)cc1C1=N[C@@](C)(c2ccc(Cl)cc2)[C@@](C)(c2ccc(Cl)cc2)N1C(=O)N1CCN(CCCS(C)(=O)=O)CC1 [Example 12, [(4S,5R)-2-(4-Chloro-5-ethanesulfonyl-2-ethoxy-phenyl)-4,5-bis-(4-chloro-phenyl)-4,5-dimethyl-4,5-dihydro-imidazol-1-yl]-[4-(3-methanesulfonyl-propyl)-piperazin-1-yl]-methanone] | 5.5 | 989 |
| CCOc1cc(Cl)c(S(C)(=O)=O)cc1C1=N[C@@](C)(c2ccc(Cl)cc2)[C@@](C)(c2ccc(Cl)cc2)N1C(=O)N1CCC(CCS(C)(=O)=O)CC1 [Example 13, [(4S,5R)-2-(4-Chloro-2-ethoxy-5-methanesulfonyl-phenyl)-4,5-bis-(4-chloro-phenyl)-4,5-dimethyl-4,5-dihydro-imidazol-1-yl]-[4-(2-methanesulfonyl-ethyl)-piperidin-1-yl]-methanone] | 6.1 | 1370 |
| CCOc1cc(Cl)c(S(C)(=O)=O)cc1C1=N[C@@](C)(c2ccc(Cl)cc2)[C@@](C)(c2ccc(Cl)cc2)N1C(=O)N1CCN(CCCS(=O)(=O)CC)CC1 [Example 14, [(4S,5R)-2-(4-Chloro-2-ethoxy-5-methanesulfonyl-phenyl)-4,5-bis-(4-chloro-phenyl)-4,5-dimethyl-4,5-dihydro-imidazol-1-yl]-[4-(3-ethanesulfonyl-propyl)-piperazin-1-yl]-methanone] | 4.7 | 1460 |
| CCOc1cc(Cl)c(S(C)(=O)=O)cc1C1=N[C@@](C)(c2ccc(Cl)cc2)[C@@](C)(c2ccc(Cl)cc2)N1C(=O)N1CCN(CC(=O)N(CCOC)CCOC)CC1 [Example 15, 2-{4-[(4S,5R)-2-(4-Chloro-2-ethoxy-5-methanesulfonyl-phenyl)-4,5-bis-(4-chloro-phenyl)-4,5-dimethyl-4,5-dihydro-imidazole-1-carbonyl]-piperazin-1-yl}-N,N-bis-(2-methoxy-ethyl)-acetamide] | 5.5 | 1140 |
